The target of series [1] is T1, CFTR (F508del/MF-HBE cells) (Homo sapiens, UniProt P13569, DEL508-508).
T1 construct: human bronchial epithelial (HBE) cells derived from CF subjects heterozygous for F508del and a minimal function CFTR mutation (F508del/MF-HBE); endogenous in cells; host or cells: Primary human bronchial epithelial cells from CF subjects (F508del/MF genotype), differentiated at an air-liquid interface
The series can be described thus: Ussing chamber assay of CFTR-mediated short-circuit currents, Assay C (0.026 μM to 25 μM, 6 concentrations). It counts as cell-based. The following applies: with 33 nM potentiator and 18 μM Tezacaftor, 20% human serum. An outline of the steps:
(§1)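 Short-circuit current was recorded at 37 °C under voltage clamp (0 mV) with amiloride 30 μM apically, forskolin 20 μM activation, then BPO/GlyH-101/inh-172 (20 μM each) to isolate CFTR current. Before recording, corrector exposure lasted 18–24 h with 18 μM tezacaftor, 20% human serum, and 33 nM (dose–response) or 44 nM (1 μM fixed) potentiator, maintained throughout.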

Series [2] deals with T1, CFTR (F508del/MF-HBE cells). Put plainly: Ussing chamber assay of CFTR-mediated short-circuit currents, Assay D (single concentration of 1 μM). It counts as cell-based. The following applies: with 44 nM potentiator and 18 μM Tezacaftor, 18-24 hours, 20% human serum. An outline of the steps:
as §1

Series [3] has the same target. The series can be described thus: Ussing chamber assay of CFTR-mediated short-circuit currents, Assay A (0.1 μM to 25 μM, 6 concentrations). It counts as cell-based. As to conditions: with 33 nM potentiator and 18 μM Tezacaftor, 20% human serum; for Emax: 18-24 hours, read-out: A Max activity (%). The essentials:
as §1

Series [4] shares this target. Put plainly: Ussing chamber assay of CFTR-mediated short-circuit currents, Assay B (0.00001 μM to 25 μM, 12 concentrations). The format is cell-based. As to conditions: with 33 nM potentiator and 18 μM Tezacaftor, 20% human serum; for Emax: 18-24 hours, read-out: B Max activity (%). An outline of the steps:
as §1

The conditions of series [5]: amide bond, 13-membered ring, CDMT/NMM, DMF.
For series [6] the following is noted: from Cc1cccc(C)c1-c1cc(OC[C@@H](CC(C)(C)C)NCc2cn3ccc(Br)cc3n2)nc(NS(=O)(=O)c2cccc(C(=O)O)c2)n1; amide bond; 13-membered ring; CDMT/NMM; DMF; 28.2 mM; 3.08 h.

SMILES strings stand for the structures. Read-outs that look alike come from different tables or passages of the source. A value given as a limit tells only on which side of the number the result lay.

The EC50 is the concentration at which the effect is half-maximal.

T1 sequence (P13569 with tags, fused parts or gaps DEL508-508): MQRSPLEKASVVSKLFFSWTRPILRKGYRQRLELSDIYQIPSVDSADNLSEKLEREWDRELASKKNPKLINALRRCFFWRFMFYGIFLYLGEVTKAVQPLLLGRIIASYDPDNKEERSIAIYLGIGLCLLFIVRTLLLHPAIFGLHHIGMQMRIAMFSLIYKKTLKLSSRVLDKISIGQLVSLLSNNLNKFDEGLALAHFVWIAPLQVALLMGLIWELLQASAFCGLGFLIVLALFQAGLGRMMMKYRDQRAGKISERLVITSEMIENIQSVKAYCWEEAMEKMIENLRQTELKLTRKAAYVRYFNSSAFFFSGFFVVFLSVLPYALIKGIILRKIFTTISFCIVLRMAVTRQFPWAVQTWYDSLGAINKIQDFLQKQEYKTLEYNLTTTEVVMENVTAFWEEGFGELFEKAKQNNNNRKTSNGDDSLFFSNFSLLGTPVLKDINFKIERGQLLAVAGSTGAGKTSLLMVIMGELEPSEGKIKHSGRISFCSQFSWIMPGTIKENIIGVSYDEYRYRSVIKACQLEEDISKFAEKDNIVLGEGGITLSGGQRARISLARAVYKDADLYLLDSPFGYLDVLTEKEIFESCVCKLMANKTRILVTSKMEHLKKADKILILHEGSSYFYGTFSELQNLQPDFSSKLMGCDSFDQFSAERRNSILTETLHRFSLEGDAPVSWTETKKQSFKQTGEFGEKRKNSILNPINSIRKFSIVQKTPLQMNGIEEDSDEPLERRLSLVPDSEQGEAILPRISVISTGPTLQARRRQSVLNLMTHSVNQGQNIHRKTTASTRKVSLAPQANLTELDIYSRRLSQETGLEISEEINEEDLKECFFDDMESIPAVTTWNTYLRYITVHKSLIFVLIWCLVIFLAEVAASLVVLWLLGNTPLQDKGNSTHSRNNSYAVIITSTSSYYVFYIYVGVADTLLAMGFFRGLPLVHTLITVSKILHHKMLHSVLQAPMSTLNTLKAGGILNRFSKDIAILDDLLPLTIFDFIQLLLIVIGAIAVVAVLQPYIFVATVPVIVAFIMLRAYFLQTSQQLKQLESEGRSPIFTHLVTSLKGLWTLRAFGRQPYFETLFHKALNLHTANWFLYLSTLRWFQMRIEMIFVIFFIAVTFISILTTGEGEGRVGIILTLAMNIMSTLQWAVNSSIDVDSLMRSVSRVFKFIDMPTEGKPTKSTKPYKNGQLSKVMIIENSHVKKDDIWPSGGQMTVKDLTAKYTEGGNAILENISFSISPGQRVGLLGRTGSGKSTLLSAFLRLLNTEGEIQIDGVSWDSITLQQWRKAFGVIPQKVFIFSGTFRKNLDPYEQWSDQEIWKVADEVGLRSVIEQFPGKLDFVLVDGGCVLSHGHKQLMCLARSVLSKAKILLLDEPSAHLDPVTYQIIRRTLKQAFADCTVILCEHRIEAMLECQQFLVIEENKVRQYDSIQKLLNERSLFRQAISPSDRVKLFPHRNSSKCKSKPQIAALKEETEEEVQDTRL

In the case of `Cc1cccc(C)c1-c1cc2nc(n1)NS(=O)(=O)c1cccc(c1)C(=O)N(Cc1cnc3oc(C4CC4)cc3n1)C(CC1CC(C)(C)C1)CO2` (centres unmarked), the ring closure, isolated yield (from Cc1cccc(C)c1-c1cc(OCC(CC2CC(C)(C)C2)NCc2cnc3oc(C4CC4)cc3n2)nc(NS(=O)(=O)c2cccc(C(=O)O)c2)n1, amide bond, 13-membered ring, CDMT/NMM, DMF, 15.9 mM, 25.0 h) stood at 75%.
The compound `Cc1cccc(C)c1-c1cc2nc(n1)NS(=O)(=O)c1cccc(c1)C(=O)N(Cc1cnc3oc(C4CC4)cc3n1)C(C1(C(C)C)CC1)CO2` (centres unmarked) yielded a ring closure, isolated yield (from Cc1cccc(C)c1-c1cc(OCC(NCc2cnc3oc(C4CC4)cc3n2)C2(C(C)C)CC2)nc(NS(=O)(=O)c2cccc(C(=O)O)c2)n1, amide bond, 13-membered ring, CDMT/NMM, DMF, 25.0 °C) of 41%.
As for `CC1(C)CCC=CC[C@](OCc2ccccc2)(C(F)(F)F)C2=NN=C(O2)c2nc(c(C(F)(F)F)cc2[N+](=O)[O-])N1` (mixture of isomers), for the setting “from C=CCCC(C)(C)Nc1nc(-c2nnc([C@@](CC=C)(OCc3ccccc3)C(F)(F)F)o2)c([N+](=O)[O-])cc1C(F)(F)F, rcm bond, 14-membered ring, Zhan catalyst-1B (20 mol%), DCE, 9.26 mM, 72.0 °C, 2.47 h”, the ring closure, isolated yield was 40%.
With `Cc1cccc(C)c1-c1cc2nc(n1)NS(=O)(=O)c1cccc(c1)C(=O)N(Cc1cnc3oc(C4CC4)cc3n1)C(C(C(C)C)C(C)C)CO2` (single isomer, unassigned) [Compound I-177, 12-[(6-cyclopropylfuro[2,3-b]pyrazin-2-yl)methyl]-6-(2,6-dimethylphenyl)-11-(1-isopropyl-2-methyl-propyl)-2,2-dioxo-9-oxa-2λ^6-thia-3,5,12,19-tetrazatricyclo[12.3.1.14,8]nonadeca-1(18),4(19),5,7,14,16-hexaen-13-one], the ring closure, isolated yield (from Cc1cccc(C)c1-c1cc(OCC(NCc2cnc3oc(C4CC4)cc3n2)C(C(C)C)C(C)C)nc(NS(=O)(=O)c2cccc(C(=O)O)c2)n1, amide bond, 13-membered ring, CDMT/NMM, DMF, 15.0 mM, 68.0 h) was 31%. In addition, the Emax in series [1] (18-24 hours, read-out: C Max activity (%)) was more than 60%. The EC50 in series [1] was less than 1000 nM. For the same compound, the “D activity at 1 μM (%)” value in series [2] is “+++ (+++ is >60%)”.
Regarding `Cc1cccc(C)c1-c1cc2nc(n1)NS(=O)(=O)c1cccc(c1)C(=O)N(Cc1cnc3oc(C(C)(C)C)cc3n1)[C@H](CC13CC(C1)C3)CO2` [Compound I-99, (11R)-11-(1-bicyclo[1.1.1]pentanylmethyl)-12-[(6-tert-butylfuro[2,3-b]pyrazin-2-yl)methyl]-6-(2,6-dimethylphenyl)-2,2-dioxo-9-oxa-2λ^6-thia-3,5,12,19-tetrazatricyclo[12.3.1.14,8]nonadeca-1(18),4(19),5,7,14,16-hexaen-13-one], the Emax in series [3] and in series [4] was more than 60% in each case. Moreover, the EC50 in series [3] and in series [4] was less than 1000 nM throughout. The “D activity at 1 μM (%)” value in series [2] is listed as “+++ (+++ is >60%)”. The compound also yielded a ring closure, yield after HPLC in series [5] (from Cc1cccc(C)c1-c1cc(OC[C@@H](CC23CC(C2)C3)NCc2cnc3oc(C(C)(C)C)cc3n2)nc(NS(=O)(=O)c2cccc(C(=O)O)c2)n1, 29.9 mM, 16.0 h) of 54%.
`Cc1cccc(C)c1-c1cc2nc(n1)NS(=O)(=O)c1cccc(c1)C(=O)N(Cc1cn3ccc(Br)cc3n1)[C@H](CC(C)(C)C)CO2` returned a ring closure, crude yield in series [6] of 90%.
On to `Cc1cccc(C)c1-c1cc2nc(n1)NS(=O)(=O)c1cccc(c1)C(=O)N(Cc1cnc3oc(C4CC4)cc3n1)[C@H](CC13CC(C1)C3)CO2` [Compound I-52, (11R)-11-(1-bicyclo[1.1.1]pentanylmethyl)-12-[(6-cyclopropylfuro[2,3-b]pyrazin-2-yl)methyl]-6-(2,6-dimethylphenyl)-2,2-dioxo-9-oxa-2λ^6-thia-3,5,12,19-tetrazatricyclo[12.3.1.14,8]nonadeca-1(18),4(19),5,7,14,16-hexaen-13-one], for which, in series [3], the Emax was more than 60% and the EC50 is less than 1000 nM. For the same compound, in series [4], the Emax is more than 60% and the EC50 was 1000 to 3000 nM. Moreover, in series [5] (from Cc1cccc(C)c1-c1cc(OC[C@@H](CC23CC(C2)C3)NCc2cnc3oc(C4CC4)cc3n2)nc(NS(=O)(=O)c2cccc(C(=O)O)c2)n1, 12.4 mM, 18.0 h), the ring closure, yield after HPLC is 66%.
Regarding `Cc1cccc(C)c1-c1cc2nc(n1)NS(=O)(=O)c1cccc(c1)C(=O)N(Cc1cnc3nc(C(C)C)n(C)c3n1)[C@H](CC13CC(C1)C3)CO2` [Compound I-88, (11R)-11-(1-bicyclo[1.1.1]pentanylmethyl)-6-(2,6-dimethylphenyl)-12-[(2-isopropyl-3-methyl-imidazo[4,5-b]pyrazin-5-yl)methyl]-2,2-dioxo-9-oxa-2λ^6-thia-3,5,12,19-tetrazatricyclo[12.3.1.14,8]nonadeca-1(18),4(19),5,7,14,16-hexaen-13-one], the Emax in series [3] and in series [4] was more than 60% in each case. Further, the EC50 in series [3] and in series [4] was less than 1000 nM throughout. Besides, the ring closure, yield after HPLC in series [5] (from Cc1cccc(C)c1-c1cc(OC[C@@H](CC23CC(C2)C3)NCc2cnc3nc(C(C)C)n(C)c3n2)nc(NS(=O)(=O)c2cccc(C(=O)O)c2)n1, 11.0 mM, 16.5 h) worked out at 66%.
As for `Cc1cccc(C)c1-c1cc2nc(n1)NS(=O)(=O)c1cccc(c1)C(=O)N(Cc1cnc3oc(C4CC4)cc3n1)[C@H](COC(C)C)CO2` [Compound I-23, (11R)-12-[(6-cyclopropylfuro[2,3-b]pyrazin-2-yl)methyl]-6-(2,6-dimethylphenyl)-11-(isopropoxymethyl)-2,2-dioxo-9-oxa-2λ^6-thia-3,5,12,19-tetrazatricyclo[12.3.1.14,8]nonadeca-1(18),4(19),5,7,14,16-hexaen-13-one], in series [3], the Emax is more than 60% and the EC50 is less than 1000 nM. Further, in series [4], the Emax was more than 60% and the concentration for a half-maximal effect (EC50) lay within 1000 to 3000 nM. The ring closure, yield after HPLC in series [5] (from Cc1cccc(C)c1-c1cc(OC[C@@H](COC(C)C)NCc2cnc3oc(C4CC4)cc3n2)nc(NS(=O)(=O)c2cccc(C(=O)O)c2)n1, 40.6 mM, 14.0 h) was 52%.
For `Cc1cccc(C)c1-c1cc2nc(n1)NS(=O)(=O)c1cccc(c1)C(=O)N(Cc1cnc3oc(C(C)(C)C)cc3n1)[C@H](CC1(C)CC1)CO2` [Compound I-98, (11R)-12-[(6-tert-butylfuro[2,3-b]pyrazin-2-yl)methyl]-6-(2,6-dimethylphenyl)-11-[(1-methylcyclopropyl)methyl]-2,2-dioxo-9-oxa-2λ^6-thia-3,5,12,19-tetrazatricyclo[12.3.1.14,8]nonadeca-1(18),4(19),5,7,14,16-hexaen-13-one], the Emax in series [3] and in series [4] was more than 60% throughout. Also, the EC50 is less than 1000 nM in series [3] and 1000 to 3000 nM in series [4]. In series [5] (from Cc1cccc(C)c1-c1cc(OC[C@@H](CC2(C)CC2)NCc2cnc3oc(C(C)(C)C)cc3n2)nc(NS(=O)(=O)c2cccc(C(=O)O)c2)n1, 44.5 mM, 16.0 h), this compound gave a ring closure, yield after HPLC of 55%.
Under “from Cc1cccc(C)c1-c1cc(OC[C@@H](CC2(C)CC2)NCc2cnc3oc(Br)cc3n2)nc(NS(=O)(=O)c2cccc(C(=O)O)c2)n1, amide bond, 13-membered ring, CDMT?, 16.0 h”, `Cc1cccc(C)c1-c1cc2nc(n1)NS(=O)(=O)c1cccc(c1)C(=O)N(Cc1cnc3oc(Br)cc3n1)[C@H](CC1(C)CC1)CO2` [Compound I-254, (11R)-12-[(6-bromofuro[2,3-b]pyrazin-2-yl)methyl]-6-(2,6-dimethylphenyl)-11-[(1-methylcyclopropyl)methyl]-2,2-dioxo-9-oxa-2λ^6-thia-3,5,12,19-tetrazatricyclo[12.3.1.14,8]nonadeca-1(18),4(19),5,7,14,16-hexaen-13-one] showed a ring closure, isolated yield of 65%. Further, the “D activity at 1 μM (%)” value in series [2] is reported as “++ (++ is 30-60%)”.
On to `Cc1cccc(C)c1-c1cc2nc(n1)NS(=O)(=O)c1cccc(c1)C(=O)N(Cc1cncc(Cl)n1)[C@H](CCC(C)(C)C)CO2`, for which the ring closure, isolated yield (from Cc1cccc(C)c1-c1cc(OC[C@@H](CCC(C)(C)C)NCc2cncc(Cl)n2)nc(NS(=O)(=O)c2cccc(C(=O)O)c2)n1, amide bond, 13-membered ring, CDMT/NMM, DMF, 15.0 mM, 18.0 h) came to 48%.
For `Cc1cccc(C)c1-c1cc2nc(n1)NS(=N)(=O)c1cccc(c1)C(=O)N(Cc1cnc3oc(C4CC4)cc3n1)[C@H](CC(C)(C)C)CO2` (some centres unmarked), the ring closure, isolated yield (from 3-[[[4-[(2R)-2-[(6-Cyclopropylfuro[2,3-b]pyrazin-2-yl)methylamino]-4,4-dimethyl-pentoxy]-6-(2,6-dimethylphenyl)pyrimidin-2-yl]amino]sulfonimidoyl]benzoic acid (hydrochloride salt) (isomer B), amide bond, 13-membered ring, CDMT/NMM, DMF, 10.4 mM) was 8%.

For the origin of these results see patent US20250340574A1, “MODULATORS OF CYSTIC FIBROSIS TRANSMEMBRANE CONDUCTANCE REGULATOR” (Vertex Pharmaceuticals Incorporated, priority 2022, published 2025).
